From patent EP0292170A2, “Enzyme immunoassay” (Bayer Corporation, priority 1987, dated 1988) come the findings set out here.

The subject of this assay is antibody to phenytoin. In words: Immunoreactivity: conjugate activity in the phosphorylase kinase reaction mixture in the presence of monoclonal antibody to phenytoin. In kind it is biochemical. The note with it: same reaction mixture, antibody added.

Take `Nc1ncnc2c1ncn2[C@@H]1O[C@H](COP(=O)(O)OP(=O)(O)OP(=O)(O)O)[C@@H](O)[C@H]1O` [ATP, adenosine triphosphate]: the “inhibition of activity by antibody” value is listed as “No inhibition”.
